Test results taken from publication PMC7686313, “Phase 1 study of mTORC1/2 inhibitor sapanisertib (TAK-228) in advanced solid tumours, with an expansion phase in renal, endometrial or bladder cancer” (British Journal of Cancer, 2020).

Experiment: Safety (adverse events, NCI CTCAE v4.0), expansion phase
Conditions: expansion Total (n = 82)
From the text: Based on data collected during dose-escalation, the expansion phase evaluated the safety and efficacy of QD and QW sapanisertib in patients with RCC, endometrial or bladder cancer. Patients could continue receiving sapanisertib for ≤1 year (or beyond, if the investigator and sponsor agreed) in the absence of disease progression or unacceptable toxicity.
Patients who received ≥1 dose of sapanisertib were included in the safety population. The response-evaluable population included patients who received ≥1 dose of sapanisertib, had measurable disease at baseline, and had ≥1 postbaseline assessment. […] Adverse events (AEs) were assessed using the National Cancer Institute Common Terminology Criteria for Adverse Events, v4.0. Patients were provided with a home blood-glucose meter to monitor their fasting predose blood-glucose measurements to assess hyperglycaemia as an on-target AE and PD marker.

## CC(C)n1nc(-c2ccc3oc(N)nc3c2)c2c(N)ncnc21 [Sapanisertib]
  Abdominal pain, all-grade AE of any cause: 17 (21) n (%)
  Abdominal pain, grade ≥3 AE of any cause: 3 (4) n (%)
  Acute kidney injury, grade ≥3 AE of any cause: 4 (5) n (%)
  Acute kidney injury, treatment-related AE: 6 (7) n (%)
  Anaemia, all-grade AE of any cause: 19 (23) n (%)
  Anaemia, grade ≥3 AE of any cause: 5 (6) n (%)
  Anaemia, treatment-related AE: 12 (15) n (%)
  Any AE: 82 (100) n (%)
  Any AE resulting in dose modification/interruption: 55 (67) n (%)
  Any AE resulting in treatment discontinuation: 12 (15) n (%)
  Any SAE: 34 (41) n (%)
  Any grade ≥3 AE: 58 (71) n (%)
  Any treatment-related AE: 82 (100) n (%)
  Any treatment-related SAE: 12 (15) n (%)
  Any treatment-related grade ≥3 AE: 38 (46) n (%)
  Arthralgia, all-grade AE of any cause: 11 (13) n (%)
  Asthenia, grade ≥3 AE of any cause: 3 (4) n (%)
  Asthenia, treatment-related AE: 12 (15) n (%)
  Asthenia, treatment-related grade ≥3 AE: 2 (2) n (%)
  Blood creatinine increased, all-grade AE of any cause: 14 (17) n (%)
  Blood creatinine increased, treatment-related AE: 8 (10) n (%)
  Constipation, all-grade AE of any cause: 28 (34) n (%)
  Constipation, grade ≥3 AE of any cause: 2 (2) n (%)
  Cough, all-grade AE of any cause: 22 (27) n (%)
  Decreased appetite, all-grade AE of any cause: 41 (50) n (%)
  Decreased appetite, treatment-related AE: 37 (45) n (%)
  Dehydration, all-grade AE of any cause: 17 (21) n (%)
  Dehydration, grade ≥3 AE of any cause: 3 (4) n (%)
  Dehydration, treatment-related AE: 9 (11) n (%)
  Dehydration, treatment-related grade ≥3 AE: 2 (2) n (%)
  Depression, all-grade AE of any cause: 8 (10) n (%)
  Diarrhoea, all-grade AE of any cause: 41 (50) n (%)
  Diarrhoea, grade ≥3 AE of any cause: 3 (4) n (%)
  Diarrhoea, treatment-related AE: 35 (43) n (%)
  Diarrhoea, treatment-related grade ≥3 AE: 3 (4) n (%)
  Dizziness, all-grade AE of any cause: 12 (15) n (%)
  Dry mouth, all-grade AE of any cause: 15 (18) n (%)
  Dry mouth, treatment-related AE: 10 (12) n (%)
  Dysgeusia, all-grade AE of any cause: 17 (21) n (%)
  Dysgeusia, treatment-related AE: 16 (20) n (%)
  Dyspepsia, treatment-related AE: 6 (7) n (%)
  Dyspnoea, grade ≥3 AE of any cause: 2 (2) n (%)
  Fatigue, all-grade AE of any cause: 60 (73) n (%)
  Fatigue, grade ≥3 AE of any cause: 11 (13) n (%)
  Fatigue, treatment-related AE: 56 (68) n (%)
  Fatigue, treatment-related grade ≥3 AE: 10 (12) n (%)
  Haematuria, grade ≥3 AE of any cause: 2 (2) n (%)
  Headache, all-grade AE of any cause: 12 (15) n (%)
  Headache, treatment-related AE: 4 (5) n (%)
  Hypercholesterolemia, treatment-related AE: 1 (1) n (%)
  Hyperglycaemia, all-grade AE of any cause: 50 (61) n (%)
  Hyperglycaemia, grade ≥3 AE of any cause: 13 (16) n (%)
  Hyperglycaemia, treatment-related AE: 49 (60) n (%)
  Hyperglycaemia, treatment-related grade ≥3 AE: 13 (16) n (%)
  Hyperkalaemia, grade ≥3 AE of any cause: 2 (2) n (%)
  Hypertension, grade ≥3 AE of any cause: 2 (2) n (%)
  Hypokalaemia, grade ≥3 AE of any cause: 2 (2) n (%)
  Hyponatremia, grade ≥3 AE of any cause: 3 (4) n (%)
  Hypophosphatemia, grade ≥3 AE of any cause: 8 (10) n (%)
  Hypophosphatemia, treatment-related AE: 9 (11) n (%)
  Hypophosphatemia, treatment-related grade ≥3 AE: 6 (7) n (%)
  Lymphopenia, grade ≥3 AE of any cause: 2 (2) n (%)
  Lymphopenia, treatment-related grade ≥3 AE: 0 (0) n (%)
  Musculoskeletal chest pain, grade ≥3 AE of any cause: 2 (2) n (%)
  Nausea, all-grade AE of any cause: 54 (66) n (%)
  Nausea, grade ≥3 AE of any cause: 5 (6) n (%)
  Nausea, treatment-related AE: 51 (62) n (%)
  Nausea, treatment-related grade ≥3 AE: 4 (5) n (%)
  Oedema peripheral, all-grade AE of any cause: 15 (18) n (%)
  On-study deaths: 3 (4) n (%)
  Oropharyngeal pain, all-grade AE of any cause: 13 (16) n (%)
  Pain in extremity, grade ≥3 AE of any cause: 3 (4) n (%)
  Pneumonia, grade ≥3 AE of any cause: 2 (2) n (%)
  Pruritus generalised, all-grade AE of any cause: 19 (23) n (%)
  Pruritus generalised, treatment-related AE: 15 (18) n (%)
  Pruritus generalised, treatment-related grade ≥3 AE: 1 (1) n (%)
  Pruritus, all-grade AE of any cause: 15 (18) n (%)
  Pruritus, treatment-related AE: 11 (13) n (%)
  Pyrexia, all-grade AE of any cause: 14 (17) n (%)
  Rash maculo-papular, all-grade AE of any cause: 24 (29) n (%)
  Rash maculo-papular, grade ≥3 AE of any cause: 4 (5) n (%)
  Rash maculo-papular, treatment-related AE: 17 (21) n (%)
  Rash maculo-papular, treatment-related grade ≥3 AE: 3 (4) n (%)
  Rash, treatment-related AE: 2 (2) n (%)
  Rash, treatment-related grade ≥3 AE: 0 (0) n (%)
  Sepsis, grade ≥3 AE of any cause: 2 (2) n (%)
  Stomatitis (includes oropharyngeal pain and mucosal inflammation), treatment-related AE: 37 (45) n (%)
  Stomatitis, all-grade AE of any cause: 40 (49) n (%)
  Stomatitis, grade ≥3 AE of any cause: 4 (5) n (%)
  Stomatitis, treatment-related grade ≥3 AE: 4 (5) n (%)
  Thrombocytopenia, grade ≥3 AE of any cause: 4 (5) n (%)
  Thrombocytopenia, treatment-related grade ≥3 AE: 4 (5) n (%)
  Transitional cell carcinoma, grade ≥3 AE of any cause: 2 (2) n (%)
  Urinary tract infection, all-grade AE of any cause: 15 (18) n (%)
  Vomiting, all-grade AE of any cause: 43 (52) n (%)
  Vomiting, grade ≥3 AE of any cause: 3 (4) n (%)
  Vomiting, treatment-related AE: 41 (50) n (%)
  Weight decreased, all-grade AE of any cause: 15 (18) n (%)
  Weight decreased, treatment-related AE: 9 (11) n (%)
